Data as given in patent US20090093471A1, “Methods of Treating Nervous Disorders” (priority 2005, published 2009).
Where two headings read alike, the source gives them in different places.

Key:
[1] = system: APP processing (α-secretase pathway, CTFs) in swAPP-HEK293 cells; assay: Western blot of APP, sAPPα, C83 and C99 in swAPP-HEK293 cells
Description: swAPP-HEK293 cells were scraped and lysed in CelLytic-M (Sigma). Protein concentrations were determined by the Bradford procedure. Equal quantity of proteins were separated on a 10% SDS-PAGE gel and transferred to Hybond-C (Amersham Biosciences) membranes. After transfer, membranes were blocked with 5% nonfat milk and incubated overnight with the primary antibody anti-APP antibody at 1/1000 (Serotec), allowing the detection of both APP and C83-C99 CTFs under specific separation and exposure conditions. For sAPPα detection, cells were allowed to secrete for 7 h. Media were collected, centrifuged and then equal amount of secretate were loaded on 10% SDS-PAGE and Western blotted with 6E10 monoclonal antibody (1/1000).

[2] = system: Aβ 40 and Aβ 42 production in swAPP-HEK293 cells; assay: Secreted Aβ 40 and Aβ 42 ELISA, swAPP-HEK293 cells; type: cell-based, human
Description: Human APP harbouring the “Swedish” mutation (swAPP) is more prone to processing than wtAPP.

Recombinant Rac3 = Recombinant Rac3 (Homo sapiens, UniProt P60763); assay: biochemical
[3] = target: T1, recombinant human BACE protein (Homo sapiens, UniProt P56817); assay: BACE fluorogenic assay with recombinant protein; type: biochemical; conditions: recombinant human BACE 1 μg/well, pH4.4; compound 38 at 2, 10 or 20 μM and higher
T1 construct: purchased R&D Systems
T1 sequence (P56817 46-501): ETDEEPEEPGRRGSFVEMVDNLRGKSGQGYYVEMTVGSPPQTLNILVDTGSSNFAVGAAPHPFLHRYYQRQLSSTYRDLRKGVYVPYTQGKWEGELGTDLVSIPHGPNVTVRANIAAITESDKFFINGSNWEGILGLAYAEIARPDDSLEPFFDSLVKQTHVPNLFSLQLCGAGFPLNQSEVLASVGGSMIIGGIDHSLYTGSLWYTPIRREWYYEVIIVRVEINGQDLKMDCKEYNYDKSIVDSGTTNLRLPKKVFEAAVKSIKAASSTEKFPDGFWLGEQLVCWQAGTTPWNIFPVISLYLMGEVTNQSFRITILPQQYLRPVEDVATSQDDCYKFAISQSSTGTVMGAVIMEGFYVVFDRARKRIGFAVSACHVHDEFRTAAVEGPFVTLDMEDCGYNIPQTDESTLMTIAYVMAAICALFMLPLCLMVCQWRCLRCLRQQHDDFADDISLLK
Description: (§1) The human BACE1 cDNA was generated by RT-PCR from human brain mRNA samples (Biocat, Germany) and cloned into pcDNA3 expression vector. Subsequently, a HEK293 cell line stably expressing BACE1 was generated and used as a source of BACE1. An in vitro assay was developed based on previous studies (Ermolieff, J., Loy, J. A., Koelsch, G., and Tang, J. (2000) Biochemistry 39, 12450-12456) using a quenched fluorogenic substrate containing the Swedish mutation MCA-[…](DNP)-CONH2 (Substrate V, Calbiochem). Proteins were extracted in 20 mM MES/1% Triton X100 plus protease inhibitor cocktail by incubation on ice for 30 minutes. The assay was carried out in black 96 well plates (ATGC) in a volume of 200 μl reaction buffer (25 mM MES/25 mM Sodium Acetate/25 mM Tris, pH 4.4), containing 25 μl of the preparation plus 15 μM peptide Substrate V. Excitation was performed at 320 nm and the reaction kinetics were monitored by measuring the fluorescence emission at 420 nm on a Fluoroscan Ascent FL plate reader (Thermo LabSystems). Controls included purified recombinant human BACE501 protein (R&D Systems) diluted at 1 μg/well in 200 μl of 0.1 M Na Acetate buffer (pH 4.4), the BACE substrate analog inhibitor III (H-Glu-Val-Asn-Statine-Val-Ala-Glu-Phe-NH2, Calbiochem), or substrate alone, and background fluorescence was subtracted to recorded BACE activitiy. […]

BACE1 = target: T2, BACE1 (Homo sapiens, UniProt P56817); assay: Cellular BACE activity, HEK293 cells stably expressing BACE1; type: cell-based; conditions: cells incubated 24 hours with compound 38 at 2, 10 or 20 μM
T2 construct: expressed in transfected cells; host or cells: HEK293
T2 sequence (P56817 46-501): as above
Description: as §1

[4] = rat, in vivo

Cl.Cl.O=c1cc(CN2CCOCC2)occ1OCCCCCSc1ccnc2cc(C(F)(F)F)ccc12 [compound 38, 5-(5-(7-(Trifluoromethyl)quinolin-4-ylthio)pentyloxy)-2-(morpholinomethyl)-4H-pyran-4-one dihydrochloride]
C99 level ([1]; swAPP-HEK293): dose-dependent increase in C99
level of full-length cytosolic and membranous APP ([1]; swAPP-HEK293): unchanged
C83 levels ([1]; swAPP-HEK293, 20, 10 or 2 μM): neither affected sAPPα nor C83 levels
sAPPα levels secreted in culture medium ([1]; swAPP-HEK293, 20, 10 or 2 μM): neither affected sAPPα nor C83 levels
Aβ 40 and Aβ 42 levels ([2]; swAPP-HEK293, 50 μM or above): below the detection limit
secreted Aβ 40 and Aβ 42 ([2]; swAPP-HEK293, 18 h, 20, 10 or 2 μM, qualitative): dose-dependently inhibits both Aβ species
Kd (Recombinant Rac3): 270 nM
BACE activity (cleavage of fluorogenic Substrate V) [3]: did not affect fluorescence
cellular BACE activity (fluorescence) (BACE1): did not affect fluorescence
brain concentrations ([4]; iv, 5 mg/kg): 130 ng/g
brain concentrations ([4]; po, 100 mg/kg): 54 ng/g
